Results published in patent publication EP1144412B1, “IMMUNOSUPPRESSIVE EFFECTS OF PTERIDINE DERIVATIVES” (4 AZA Bioscience nv, priority 1998, dated 2000).
Like-named read-outs stand apart in the source and are kept apart here.

Experiments:
[1] = tested on: Peripheral blood mononuclear cells (PBMC); experiment: Mixed lymphocyte reaction (MLR), [3H]-thymidine incorporation; assay type: cell-based; settings: Homo sapiens
Excerpt: (§1) Various models may be used for testing an immunosuppressive effect. In vivo, for example, different transplantation models are available. They are strongly influenced by different immunogenicities, depending on the donor and recipient species used and depending on the nature of the transplanted organ. The survival time of transplanted organs can thus be used to measure the suppression of the immune response. In vitro, there exist also various models. The most used are lymphocyte activation tests. Usually activation is measured via lymphocyte proliferation. Inhibition of proliferation thus always means immunosuppression under the experimental conditions applied. There exist different stimuli for lymphocyte activation: • coculture of lymphocytes of […] (MLR = mixed lymphocyte reaction): lymphocytes expressing different minor and major antigens of the HLA-DR type (= alloantigens) activate each other non-specifically. • CD3 assay: here there is an activation of the T-lymphocytes via an exogenously added antibody (OKT3). This antibody reacts against the CD3 molecule located on the lymphocyte membrane. This molecule has a costimulatory function. […] This molecule is also located on the lymphocyte membrane, and delivers strong costimulatory signals.
Peripheral blood mononuclear cells (PBMC) were isolated from heparinized peripheral blood by density gradient centrifugation over Lymphoprep (Nycomed, Maorstua, Norway). Allogeneic PBMC or EBV-transformed human B cells [RPMI1788 (ATCC name CCL156)] which strongly express B7-1 and B7-2 were used as stimulator cells after irradiation with 30 Gy. MLR was performed in triplicate wells. After 5 days incubation at 37EC, 1 µCi [^3H]-thymidine was added to each cup. After a further 16 hours incubation, cells were harvested and counted in a β-counter.
The percent suppression of proliferation by drugs was counted using the formula Percent inhibition =((cpm + drugs) - cpm Cult. Med)/((cpm - drugs) - cpm Cult. Med.)x 100 [formula]

Highly purified T cells [2] = experiment: T cell proliferation induced by anti-CD3 mAb + PMA (BrdU incorporation); assay type: cell-based, Human; settings: Homo sapiens, T-cell
Excerpt: as §1
(§2) T cells were purified by removing non-T cells. Briefly,monocytes were removed by cold agglutination. The resulting lymphoid cells were further purified by a cell enrichment immunocolumn [Cellect Human T (Biotex, Edmonton, Alberta, Canada)] by a process of negative selection.
(§3) Measurements of T cell proliferations induced by anti-CD3 mAb + PMA or anti-CD28 mAb + PMA
(§4) Highly purified T cells (10^6/ml) were stimulated by immobilized anti-CD3 àr anti-CD28 mAb in the presence of PMA. Anti-CD3 mAb (CLB-CD3; CLB, Amsterdam, The Netherlands) were fixed on the 96-microwell plates by incubating the wells with 50 µl of mAb solution (1/800 dilution in culture medium). Anti-CD28 mAb (CLB-CD28; CLB, Amsterdam, The Netherlands) 50 µl (1/650 dilution in culture medium) was added directly to the wells. Further, 20 µl PMA (Sigma, St. Louis, MO, USA) solution (final concentration: 0.5 ng/ml) was added. Subsequently, 20 µl of immunosuppressants were added by serial dilution in triplicate wells. Finally 100 µl of the T cell suspension (10^6/ml) was added. After 48-hour incubation at 37EC in 5% CO2 20 Φl BrdU (100 ΦM solution) (Cell Proliferation Elisa, Boehringer-Mannheim Belgium) was added to each well. After a further overnight incubation the T cell proliferation was measured using a colorimetric immunoassay for qualification of cell proliferation based on measurements of the incorporation of BrdU during DNAsynthesis. The optical density (OD) was measured by a Behring EL311 plate reader at 450 nm (reference wavelength: 690 nm). The percent suppression of proliferation by drugs was counted using the formula: Per cent inhibition =((OD + drugs) - (OD Cult. Med.))/((OD - drugs) - (OD Cult. Med.))x 100 [formula]

Highly purified T cells [3] = experiment: T cell proliferation induced by anti-CD28 mAb + PMA (BrdU incorporation); assay type: cell-based, Human; settings: Homo sapiens, T-cell
Excerpt: as §1, §2, §3, §4

[4] = Table II, read-out: IC50 in µM of pteridine derivative MLR
[5] = untitled structure table, no unit printed there, same values in Table II as IC50 in µM, read-out: MLR
[6] = Table II, read-out: IC50 in µM of pteridine derivative ACD3
[7] = untitled structure table, no unit printed there, same values in Table II as IC50 in µM, read-out: aCD3
[8] = Table II, read-out: IC50 in µM of pteridine derivative aCD28
[9] = untitled structure table, no unit printed there, same values in Table II as IC50 in µM, read-out: aCD28

Row | Structure (SMILES) | IC50 [1, 4] | IC50 [1, 5] | IC50 (Highly purified T cells [2]; [6]) | IC50 (Highly purified T cells [2]; [7]) | IC50 (Highly purified T cells [3]; [8]) | IC50 (Highly purified T cells [3]; [9])
1 | Nc1nc(N)c2nc(CNCc3ccccc3)cnc2n1 [Compound 19, 2,4-diamino-6-benzylaminomethyl pteridine] | 50 µM | 50 µM | 123 µM | 123 µM | 118 µM | 118 µM
2 | CN(C)Cc1cnc2nc(N)nc(N)c2n1 [Compound 20, 2,4-diamino-6-dimethyl aminomethyl pteridine] | > 200 µM | > 200 µM | 170 µM | 170 µM | 100 µM | 100 µM
3 | CCN(CC)c1nc(N)nc2ncc(-c3ccccc3)nc12 [Compound 21, 2-amino-4-diethylamino-6-phenylpteridine] | 15 µM | 15 µM | 80 µM | 80 µM | 20 µM | 20 µM
4 | CCN(CC)c1nc(N)nc2ncc(-c3ccc(Cl)cc3)nc12 [Compound 22, 2-amino-4-diethylamino-6-(4-chlorophenyl) pteridine] | 17 µM | 17 µM | 50 µM | 50 µM | 20 µM | 20 µM
5 | CCN(CC)c1nc(N)nc2ncc(-c3ccc(OC)cc3)nc12 [Compound 23, 2-amino-4-diethylamino-6-(4-methoxyphenyl) pteridine] | 12 µM | 12 µM | 20 µM | 20 µM | 20 µM | 20 µM
6 | CCN(CC)c1nc(N)nc2ncc(-c3ccc(OC)c(OC)c3)nc12 [Compound 24, 2-amino-4-diethylamino-6-(3,4-dimethoxyphenyl) pteridine] | 0.08 µM | 0.08 µM | 0.5 µM | 0.5 µM | 0.1 µM | 0.1 µM
7 | Nc1nc(N(Cc2ccccc2)Cc2ccccc2)c2nc(-c3ccccc3)cnc2n1 [Compound 25, 2-amino-4-dibenzylamino-6-phenyl pteridine] | 75 µM | 75 µM | 25 µM | 25 µM | 25 µM | 25 µM
8 | Nc1nc(N(Cc2ccccc2)Cc2ccccc2)c2nc(-c3ccc(Cl)cc3)cnc2n1 [Compound 26, 2-amino-dibenzylamino-6-(4-chlorophenyl) pteridine] | 100 µM | 100 µM | 75 µM | 75 µM | 20 µM | 20 µM
9 | COc1ccc(-c2cnc3nc(N)nc(N(Cc4ccccc4)Cc4ccccc4)c3n2)cc1 [Compound 27, 2-amino-4-dibenzylamino-6-(4-methoxyphenyl) pteridine] | 50 µM | 50 µM | 20 µM | 20 µM | 15 µM | 15 µM
10 | COc1ccc(-c2cnc3nc(N)nc(N(Cc4ccccc4)Cc4ccccc4)c3n2)cc1OC [Compound 28, 2-amino-4-dibenzylamino-6-(3,4-dimethoxyphenyl) pteridine] | 3.5 µM | 3.5 µM | 4.3 µM | 4.3 µM | 3.2 µM | 3.2 µM
11 | CCCN(CCC)c1nc(N)nc2ncc(-c3ccccc3)nc12 [Compound 29, 2-amino-4-dipropylamino-6-phenylpteridine] | 15 µM | 15 µM | 25 µM | – | 25 µM | 25 µM
12 | CCCN(CCC)c1nc(N)nc2ncc(-c3ccc(Cl)cc3)nc12 [Compound 30, 2-amino-4-dipropylamino-6-(4-chlorophenyl)pteridine] | 13 µM | 13 µM | 9.7 µM | 9.7 µM | 6.7 µM | 6.7 µM
13 | CCCN(CCC)c1nc(N)nc2ncc(-c3ccc(OC)cc3)nc12 [Compound 31, 2-amino-4-dipropylamino-6-(4-methoxyphenyl)pteridine] | 8.5 µM | 8.5 µM | 5.7 µM | 5.7 µM | 2.8 µM | 2.8 µM
14 | CCCN(CCC)c1nc(N)nc2ncc(-c3ccc(OC)c(OC)c3)nc12 [Compound 32, 2-amino-4-dipropylamino-6-(3,4-dimethoxyphenyl)pteridine] | 2.2 µM | 2.2 µM | 0.8 µM | 0.8 µM | 0.7 µM | 0.7 µM
15 | Nc1nc(N2CCOCC2)c2nc(-c3ccccc3)cnc2n1 [Compound 33, 2-amino-4-morpholino-6-phenylpteridine] | 15 µM | 15 µM | 100 µM | 100 µM | 20 µM | 20 µM
16 | Nc1nc(N2CCOCC2)c2nc(-c3ccc(Cl)cc3)cnc2n1 [Compound 34, 2-amino-4-morpholino-6-(4-chlorophenyl)pteridine] | 12 µM | 12 µM | 20 µM | 20 µM | 20 µM | 20 µM
17 | COc1ccc(-c2cnc3nc(N)nc(N4CCOCC4)c3n2)cc1OC [Compound 36, 2-amino-4-morpholino-6-(3,4-dimethoxyphenyl)pteridine] | 0.1 µM | 0.1 µM | 0.4 µM | 0.4 µM | 0.3 µM | 0.3 µM
18 | Nc1nc(N2CCCCC2)c2nc(-c3ccccc3)cnc2n1 [Compound 37, 2-amino-4-piperidino-6-phenylpteridine] | 15 µM | 15 µM | 80 µM | 80 µM | 20 µM | 20 µM
19 | Nc1nc(N2CCCCC2)c2nc(-c3ccc(Cl)cc3)cnc2n1 [Compound 38, 2-amino-4-piperidino-6-(4-chlorophenyl)pteridine] | 15 µM | 15 µM | 70 µM | 70 µM | 25 µM | 25 µM
20 | CN1CCN(c2nc(N)nc3ncc(-c4ccccc4)nc23)CC1 [Compound 41, 2-amino-4-N-methylpiperazino-6-phenylpteridine] | 15 µM | 15 µM | 40 µM | 40 µM | 25 µM | 25 µM
21 | CN1CCN(c2nc(N)nc3ncc(-c4ccc(Cl)cc4)nc23)CC1 [Compound 42, 2-amino-4-N-methylpiperazino-6-(4-chlorophenyl)pteridine] | 4.8 µM | 4.8 µM | 11 µM | 11 µM | 4.2 µM | 4.2 µM
22 | COc1ccc(-c2cnc3nc(N)nc(N4CCN(C)CC4)c3n2)cc1 [Compound 43, 2-amino-4-N-methylpiperazino-6-(4-methoxyphenyl)pteridine] | 12.3 µM | 12.3 µM | 11.7 µM | 11.7 µM | 4.2 µM | 4.2 µM
23 | COc1ccc(-c2cnc3nc(N)nc(N4CCN(C)CC4)c3n2)cc1OC [Compound 44] | 2 µM | 2 µM | 7.3 µM | 7.3 µM | 6.5 µM | 6.5 µM
24 | Nc1nc(N2CCNCC2)c2nc(-c3ccccc3)cnc2n1 [Compound 46, 2-amino-4-piperazino-6-phenylpteridine] | 12 µM | 12 µM | 11.7 µM | 11.7 µM | 5 µM | 5 µM
